Results from the NIST ThermoML archive (doi:10.1021/je501051p).

Test: mn = molality of the nth substance listed, in mol/kg
Details: 303 K, Ring tensiometer

CCCCCCCCCCc1ccc(C(=O)[O-])cn1.[Na+] [sodium 6-decylnicotinate] + O
Details | surface tension liquid-gas [mN/m]
m1 = 1e-05 | 65
m1 = 1.479e-05 | 63.7
m1 = 2.512e-05 | 62.02
m1 = 4.074e-05 | 59.6
m1 = 5.495e-05 | 58.45
m1 = 7.586e-05 | 56.75
m1 = 0.0001 | 55.75
m1 = 0.000123 | 54.56
m1 = 0.0001514 | 53.1
m1 = 0.000182 | 51.77
m1 = 0.0002042 | 50.5
m1 = 0.0002512 | 49.5
m1 = 0.000302 | 48.5
m1 = 0.0003548 | 47
m1 = 0.0004074 | 47
m1 = 0.0005012 | 47
m1 = 0.0006166 | 47
m1 = 0.0008128 | 46.5
m1 = 0.001 | 46
m1 = 0.001514 | 45.6
m1 = 0.002042 | 45
m1 = 0.002291 | 44.5
m1 = 0.002512 | 44
m1 = 0.002754 | 43.5
m1 = 0.00302 | 42.5
m1 = 0.003311 | 42.5
m1 = 0.003548 | 42.5
m1 = 0.004074 | 42.5
m1 = 0.005012 | 42.5
m1 = 0.006026 | 42.5

CCCCCCCCc1ccc(C(=O)[O-])cn1.[Na+] [sodium 6-octylnicotinate] + O
Details | surface tension liquid-gas [mN/m]
m1 = 5e-05 | 69
m1 = 7.145e-05 | 68.3
m1 = 0.0001 | 67
m1 = 0.0001545 | 66
m1 = 0.0002512 | 64.9
m1 = 0.0003972 | 63.6
m1 = 0.0006397 | 61.8
m1 = 0.001 | 60
m1 = 0.0015 | 58.4
m1 = 0.002 | 57.4
m1 = 0.0025 | 57.4
m1 = 0.002999 | 57.4
m1 = 0.003999 | 57.4
m1 = 0.005 | 56
m1 = 0.006427 | 54.22
m1 = 0.009016 | 52.4
m1 = 0.01 | 49.5
m1 = 0.013 | 48
m1 = 0.015 | 47.5
m1 = 0.01702 | 45
m1 = 0.02 | 44
m1 = 0.025 | 44
m1 = 0.02999 | 44
m1 = 0.03499 | 44

CCCCCCCCCCc1ccc(C(=O)NCC(=O)[O-])cn1.[Na+] [sodium (6-decylnicotinoyl)glycinate] + O
Details | surface tension liquid-gas [mN/m]
m1 = 1.995e-05 | 64.7
m1 = 2.818e-05 | 61.8
m1 = 4.786e-05 | 59.4
m1 = 5.888e-05 | 58.1
m1 = 8.128e-05 | 56.6
m1 = 0.0001148 | 55.2
m1 = 0.0001514 | 53.2
m1 = 0.0002512 | 52.5
m1 = 0.000302 | 50
m1 = 0.0005012 | 47
m1 = 0.0008128 | 46
m1 = 0.001 | 45
m1 = 0.001514 | 44
m1 = 0.002042 | 43
m1 = 0.002291 | 42
m1 = 0.002512 | 40.5
m1 = 0.00302 | 40.5
m1 = 0.003548 | 40.5
m1 = 0.004074 | 40.5
m1 = 0.005012 | 40.5
m1 = 0.006026 | 40.5
